The values that follow come from paper PMC8452690, “Structural basis for small molecule targeting of Doublecortin Like Kinase 1 with DCLK1-IN-1” (Communications Biology, 2021).

Test [1] deals with T1, DCLK1-FL1Δ D511N (Homo sapiens, UniProt O15075, D511N).
T1 construct: DCLK1-FL1Δ (residues 50-686); 8XHis tag with TEV protease cleavage site (N); made in house; host or cells: Escherichia coli C41(DE3)
Kind of test: SPR binding to immobilised DCLK1-FL1Δ D511N (non-phosphorylated). The settings on record: for Kd: 18 °C, DCLK1 FL1Δ D511N immobilised, mean ± SEM. The method, then:
SPR studies were carried out on a Biacore 2000 instrument (Cytivia). Proteins were immobilised at 25 °C using standard amine coupling to a CM5 chip (Cytivia) in immobilisation buffer consisting of 10 mM HEPES pH 7.4, 150 mM NaCl, 1 mM TCEP, 0.005% Tween P20, 1% (v/v) DMSO. To the active flow, cells were coupled either DCLK1-FL1Δ D511N or WT to a final density of approximately 7000 RU, followed by surface deactivation with 1 M ethanolamine. For each protein, coupling was performed at a concentration of 2 µM protein in 10 mM sodium acetate buffer pH 4.0, 1% (v/v) DMSO final, in the presence 10 µM of the moderate affinity compound FMF-03-149-01 (IC50 ~400 nM)[28] to help to stabilise the kinase domain during immobilsiation at low pH. A blank immobilisation was performed on the reference flow cell.
Binding experiments were performed at 18 °C in running buffer consisting of 20 mM HEPES, pH 7.4, 150 mM NaCl, 1 mM tris(2-carboxyethyl)phosphine (TCEP), 0.005% (v/v) Tween-P20, and 2% (v/v) DMSO. Compounds (10 mM stocks in 100% DMSO) were diluted in DMSO to 500 µM (DCLK1-NEG) or 25 µM (all other compounds) then in running buffer (without DMSO) to achieve the starting concentration with a final DMSO concentration of 2% (v/v). Samples were then serially titrated in running buffer containing 2% (v/v) DMSO to prepare each final concentration series (seven-point, three-fold serial dilution, 10 µM−13.7 nM for DCLK1-NEG, or 500−0.68 nM for all other compounds). Solutions were injected in multi-cycle format (in duplicate) without regeneration (contact time 80 s, flow rate 75 μL/min, dissociation time 600 s), with an extra wash (50% DMSO) after each injection.
Steady-state/kinetic binding data were fitted using the S200 BIAevaluation software (GE Healthcare). Sensorgrams from reference surfaces and blank injections were subtracted from the raw data (double-referencing), followed by solvent correction. Kinetic rate constants (kon and koff values) were obtained by fitting to 1:1 Langmuir binding model. Reported binding data represent mean ± SEM for three or four independent experiments. The dissociative half-life life (t1/2) for each inhibitor complex with DCLK1 was calculated from the fitted dissociation rate constant (koff), according to the equation 1 (t1/2 = ln(2)/koff.)
Background: SPR reads the build-up and loss of mass on a sensor chip optically.

Test [2] concerns the target T2, DCLK1-KD (residues 372-649) (Homo sapiens, UniProt O15075).
T2 construct: the DCLK1 kinase domain (DCLK1-KD; residues 372-649) by carrying out thermal stability assays; 8XHis tag with TEV protease cleavage site (N); made in house; host or cells: Escherichia coli C41(DE3)
T2 sequence (O15075 372-649 isoform O15075-2): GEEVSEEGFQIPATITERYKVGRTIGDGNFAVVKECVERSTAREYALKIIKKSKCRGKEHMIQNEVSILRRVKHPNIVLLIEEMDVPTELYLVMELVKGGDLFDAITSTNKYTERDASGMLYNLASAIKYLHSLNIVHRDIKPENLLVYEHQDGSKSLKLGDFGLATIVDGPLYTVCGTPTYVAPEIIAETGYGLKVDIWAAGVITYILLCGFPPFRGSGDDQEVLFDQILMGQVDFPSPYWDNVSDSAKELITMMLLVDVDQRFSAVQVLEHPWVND
As to the kind of experiment: Thermal shift stability assay, DCLK1-KD. It counts as binding. The settings on record: compound titration 2.5 to 40 μM. The method, then:
(§1) DCLK1 proteins were diluted in 150 mM NaCl, 20 mM Tris pH 8.0, 1 mM DTT to […] final concentration and assayed with the appropriate concentration of inhibitor in a total reaction volume of 25 μL. SYPRO Orange (Molecular Probes) was used as a fluorescence probe and detected at 530 nm. The data shown are representative of two independent experiments.

The target of test [3] is T3, DCLK1-FL1Δ WT (Homo sapiens, UniProt O15075).
T3 sequence (O15075 50-686 isoform O15075-2): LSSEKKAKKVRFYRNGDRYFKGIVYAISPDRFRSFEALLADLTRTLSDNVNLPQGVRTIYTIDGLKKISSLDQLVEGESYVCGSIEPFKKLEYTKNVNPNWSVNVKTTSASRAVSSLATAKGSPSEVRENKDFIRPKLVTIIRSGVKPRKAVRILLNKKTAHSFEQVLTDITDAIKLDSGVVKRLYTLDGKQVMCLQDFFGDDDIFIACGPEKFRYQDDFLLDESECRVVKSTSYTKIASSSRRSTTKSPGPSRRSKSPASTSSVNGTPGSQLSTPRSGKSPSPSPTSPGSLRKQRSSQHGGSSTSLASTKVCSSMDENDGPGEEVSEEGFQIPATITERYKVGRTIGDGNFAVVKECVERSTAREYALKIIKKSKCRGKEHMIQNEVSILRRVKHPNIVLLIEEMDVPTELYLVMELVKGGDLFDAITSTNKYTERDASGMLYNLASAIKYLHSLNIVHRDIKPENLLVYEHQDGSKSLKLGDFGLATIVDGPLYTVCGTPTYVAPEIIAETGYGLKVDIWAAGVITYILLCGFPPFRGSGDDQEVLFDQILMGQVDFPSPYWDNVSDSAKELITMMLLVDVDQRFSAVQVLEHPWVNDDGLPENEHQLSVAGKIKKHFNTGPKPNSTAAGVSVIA
Kind of test: Thermal shift stability assay, DCLK1-FL1Δ WT. It counts as binding. The settings on record: phosphorylated WT, 2.5-40 μM. The method, then:
as §1

The target of test [4] is T4, DCLK1-FL1Δ WT tubulin polymerisation activity (Homo sapiens, UniProt O15075).
T4 construct: DCLK1-FL1Δ (residues 50-686); 8XHis tag with TEV protease cleavage site (N); made in house; host or cells: Escherichia coli C41(DE3)
T4 sequence (O15075 50-686 isoform O15075-2): T3 sequence (O15075 50-686 isoform O15075-2)
Kind of test: Tubulin polymerisation and pelleting assay with DCLK1-FL1Δ WT. It counts as biochemical. The settings on record: 20 and 40 μM (Supplementary Fig. 10c). Here is the method:
Tubulin polymerisation assays were performed in buffer containing 80 mM PIPES at pH 6.9, 2.0 mM MgCl2, 0.5 mM EGTA, 2.5 mM β,γ-Methyleneguanosine 5’-triphosphate, and 10 μM tubulin and 5 μM DCLK1 for 1 h at 37 °C. For tubulin polymerisation in the presence of inhibitors, various concentrations of the inhibitors were first incubated with DCLK1 and allowed to stand on ice for 5 min before adding this mix to the tubulin polymerisation reaction. Following the tubulin polymerisation, the reaction mix was pelleted at 20,000 g for 20 min and the supernatant and the pellet fractions were run on a 12% SDS gel. The data shown are representative of two independent experiments.

Test [5] deals with DCLK1-KD. Further details: method as in PMID 32251410. The settings on record: read-out: KD by ITC; cited from earlier work. A general note: In ITC the heat of successive injections is recorded.

Each structure is given as a SMILES string. Several values for one entry are separate records, joined by “and”; a condition that tells them apart may be missing. Identical values can stand only once. Like-named read-outs stand apart in the source and are kept apart here. Marks after values point to notes of the source that are not given here.

T1 sequence (O15075 50-686 D511N): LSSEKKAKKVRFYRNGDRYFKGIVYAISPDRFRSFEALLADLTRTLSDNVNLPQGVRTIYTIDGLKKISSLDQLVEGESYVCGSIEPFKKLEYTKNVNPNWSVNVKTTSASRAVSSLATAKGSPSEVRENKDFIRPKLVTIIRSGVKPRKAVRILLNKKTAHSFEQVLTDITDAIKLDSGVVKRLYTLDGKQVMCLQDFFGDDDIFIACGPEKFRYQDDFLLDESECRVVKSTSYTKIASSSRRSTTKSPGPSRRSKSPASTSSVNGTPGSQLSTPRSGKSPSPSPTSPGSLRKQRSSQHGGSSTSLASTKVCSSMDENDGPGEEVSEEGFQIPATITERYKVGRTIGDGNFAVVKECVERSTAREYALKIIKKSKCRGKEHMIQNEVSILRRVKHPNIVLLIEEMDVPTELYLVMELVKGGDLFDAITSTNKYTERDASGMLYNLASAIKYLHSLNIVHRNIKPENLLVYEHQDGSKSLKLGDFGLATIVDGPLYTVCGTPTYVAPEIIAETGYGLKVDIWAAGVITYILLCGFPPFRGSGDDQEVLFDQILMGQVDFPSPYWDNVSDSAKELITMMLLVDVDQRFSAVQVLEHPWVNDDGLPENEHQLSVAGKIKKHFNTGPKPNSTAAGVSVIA

As a reminder, the Kd is the free concentration of one partner at which half of the binding sites on the other are occupied at equilibrium, for simple one-to-one binding. The term koff denotes the rate constant with which the complex falls apart. What is called kon is a measure of how fast the partners come together. On to `COc1cc(N2CCN(C)CC2)ccc1Nc1ncc2c(n1)N(C)c1ccccc1C(=O)N2CC(F)(F)F` [DCLK1-IN-1], for which, in test [1], the “kon, kinetic fitting” value was 5.1 ± 0.3 1/Ms (x 10^5). Besides, in test [1] (SPR), the “off-rate faster relative to FMF-03-055-01 or XMD8-85” value is given as ~ 2 fold. Further, the “on-rate slower relative to FMF-03-055-01 or XMD8-85” value in test [1] (SPR) is ~ 2 fold. For the same compound, the “affinity weaker than FMF-03-055-01 or XMD8-85” value in test [1] (SPR KD, DCLK1-FL1Δ D511N) was 4−5 fold. Also, the Kd in test [1] (SPR, read-out: KD, kinetic fitting (1:1 binding model)) was 53 nM; in test [1] (SPR, read-out: KD, steady state fitting), 70 ± 4 nM; in test [5], 55 nM and 109 nM. The “reduction in DCLK1 affinity compared to FMF-03-055-1” value in test [1] (discussion statement) is recorded as “five-fold reduction”. In addition, in test [1] (read-out: koff, kinetic fitting), the koff amounted to 0.027 ± 0.001 s⁻¹. The association rate constant (kon) in test [1] (read-out: kon (Fig. 5c)) was found to be 510000 ± 30000 M⁻¹ s⁻¹. Further, in test [2], the “binding by shift in melting temperature (ΔTm)” value is listed as “bind DCLK1-KD”. Besides, in test [3], the “melting temperature change versus control compound DCLK1-NEG” value is on record as “increased”. Further, the “restoration of DCLK1-FL1Δ WT tubulin polymerisation activity” value in test [4] is given as “did not restore”.
